According to patent publication US11014961B2, “Self-labeling miniproteins and conjugates comprising them” (priority 2017, dated 2021):
One block for each compound: values may come before it. Residues, ends and D or L forms follow the SMILES beside them. No end group written: not given here. *: point of attachment. X1 = O=C(CCCC[C@@H]1SC[C@@H]2NC(=O)N[C@@H]21)NCCCC[C@H](NC(=O)CCOCCOCCOCCOCCOCCOCCOCCOCCOCCOCCOCCOCCSc1c(F)c(F)c(Sc2c(F)c(F)c(*)c(F)c2F)c(F)c1F)C(=O)O

Legend:
[1] = molecular target: T1, proteinase K (Parengyodontium album, UniProt P06873); test: Protease digestion with proteinase K (LC-MS fraction remaining); format: in vitro ADME; conditions: 100 μM peptide; for protease stability in presence of CA (noncovalent): with 10×CA (1 mM CA)
T1 construct: purchased Amresco
T1 sequence (P06873 106-384): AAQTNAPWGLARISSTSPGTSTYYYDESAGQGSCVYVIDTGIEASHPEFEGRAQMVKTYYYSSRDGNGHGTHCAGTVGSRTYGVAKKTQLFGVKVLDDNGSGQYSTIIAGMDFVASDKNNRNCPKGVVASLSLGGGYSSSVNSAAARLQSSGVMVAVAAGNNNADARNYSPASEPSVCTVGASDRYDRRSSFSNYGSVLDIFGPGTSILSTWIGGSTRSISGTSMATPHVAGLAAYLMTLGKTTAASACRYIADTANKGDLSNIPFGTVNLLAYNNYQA
Experimental: Reactions were performed using 100 μM peptide with […] of proteinase K for general cleavage with the addition of 1 mM CA for C11A and C11S digestions. Reactions were quenched with 49.75% water, 49.75% ACN and 0.5% TFA at selection time point and analyzed by LCMS. TIC-based integrated peak areas were used to determine the amount of material in a given time point normalized to the starting amount. These normalized values there then concerted to fraction remaining and plotted as shown.

[2] = Second order rate constant of the reaction between miniprotein (MP) and capture agent (CA), LC-MS TIC peak integration; format: biochemical; conditions: for Second order rate constant: 0.1 mM MP, 0.5 mM CA; for reactivity with the CA (in words) / fold increase of second order rate constant relative to MP01: standard reaction conditions; for Rate: Table 4, reaction rates of self-labeling miniprotein sequences
[3] = Labeling conversion of MP with the modified capture agent (LC-MS TIC); format: biochemical; conditions: 0.5 mM mCA, 0.1 mM MP, 5 mM TCEP, 1× selection buffer, pH 7.4
Experimental: A solution consisting of 5 mM carboxy-(PEG)12-thiol, 500 mM pentafluorophenyl sulfide, 20 mM triphenylphosphine and 230 mM DIEA in acetonitrile was vortexed and left at room temperature for 4 hours. The reaction was then diluted with 10.6× volume of 95% A: 5% B, solid phase extracted and lyophilized. The resulting material was analyzed by LCMS (method 2). This product will later be referred to as mCA (modified CA).
All 10 putative self-labeling MPs were chemically synthesized (MP01 and MP02 were additionally made with the full C-terminal constant region). To determine the importance of the C-terminal tag, a kinetic analysis on MP01 was conducted comparing the sequence with and without the tag. […] The remainder of the MPs all reacted with varying second order rate constants and to differing product distributions from multiple cysteine labeling sites (Table 3). […] Of the sequences containing multiple cysteines, all reacted to differing extents. […] On the other hand, MP08 (SEQ ID NO: 53) reacted sluggishly (0.04 μM^−1 s^−1) to produce singly and doubly labeled species. The sole sequence containing three cysteines, MP05 (SEQ ID NO: 44), yielded a mixture of labeled species within an 8-hour reaction—primarily existing with either 2 or 3 labels with a rapid initial labeling process (0.93±0.11 μM^−1 s^−1). […]

[4] = Labeling conversion of MP with the selection capture agent (LC-MS TIC); format: biochemical; conditions: 0.5 mM CA, 0.1 mM MP, 5 mM TCEP, 1× selection buffer, pH 7.4
Experimental: All 10 putative self-labeling MPs were chemically synthesized (MP01 and MP02 were additionally made with the full C-terminal constant region). To determine the importance of the C-terminal tag, a kinetic analysis on MP01 was conducted comparing the sequence with and without the tag. […] The remainder of the MPs all reacted with varying second order rate constants and to differing product distributions from multiple cysteine labeling sites (Table 3). […] Of the sequences containing multiple cysteines, all reacted to differing extents. […] On the other hand, MP08 (SEQ ID NO: 53) reacted sluggishly (0.04 μM^−1 s^−1) to produce singly and doubly labeled species. The sole sequence containing three cysteines, MP05 (SEQ ID NO: 44), yielded a mixture of labeled species within an 8-hour reaction—primarily existing with either 2 or 3 labels with a rapid initial labeling process (0.93±0.11 μM^−1 s^−1). Finally, MP01, 07 and 10 (SEQ ID NOs: 13, 52, and 59, respectively) were probed via proteolytic digest-LC-MS/MS analysis, this confirmed that the cysteines were labeled and not an alternative amino acid. […] Conditions used were 0.5 mM CA, 0.1 mM MP, 5 mM TCEP, 1× selection buffer, pH 7.4.

[5] = Thermal melting followed by circular dichroism at 222 nm; format: physicochemical; conditions: CD at 222 nm
Experimental: All experiments were performed at room temperature (˜23.5° C.) using a Jasco J-1500 spectrometer at MIT's Biophysical Instrumentation Facility (BIF). General conditions used were 10 mM sodium phosphate buffer at pH 7.45 with 5 mM TCEP (if a cysteine was present) with 50 μM peptide. CD measurements with C11S and C11A versions of Gen4 (SEQ ID NOs: 138 and 137, respectively) used the same conditions, without TCEP but with varying amount of CA (50 μM up to 500 μM depending on the desired mole ratio). Temperature melt data was obtained using a 0.5° C./minute ramp with data collected at 222 nm. […] For CD of Gen 1 (MP01; SEQ ID NO: 13), Gen1 H19L (MP01-H19L; SEQ ID NO: 62), Gen1 3 ala (MP01-T8/D10/S14A; SEQ ID NO: 69), Gen2 (MP01-Gen2; SEQ ID NO: 71) and Gen3_1 (MP01-Gen3_1; Gen 2-A17E; SEQ ID NO: 116) in their labeled and nonlabeled states, data was obtained in 12.5 mM HEPES, 50 mM NaCl, 2.5 mM MgCl2 and 2.5 mM CaCl2 at pH 7.45 with 5 mM TCEP at 50 µM peptide with or without ˜55 μM CA that had reacted for ˜2 days at room temperature. The CA labeled versions were not purified post reaction and were analyze in their reaction mixture.
Lacking an apparent cysteine pKa modulation, the basis for Gen4's high reactivity again came into question. Both C11A (SEQ ID NO: 134) and C11S (SEQ ID NO: 135) variants were synthesized and assayed them for CA-mediated structural alteration via CD. […]

[6] = 5 mM TCEP, 1× selection buffer pH 7.4, RT, a: average of three MP concentrations, c: labeled 1-3 times, d: labeled 1-2 times
[7] = 5 mM TCEP, 1× selection buffer pH 7.4, RT

Compound: CSCC[C@H](NC(=O)[C@H](CCCCN)NC(=O)[C@H](Cc1ccc(O)cc1)NC(=O)[C@H](CCCCN)NC(=O)[C@H](CCC(N)=O)NC(=O)[C@H](CC(N)=O)NC(=O)[C@@H](N)CCSC)C(=O)N[C@@H](C)C(=O)N[C@@H](CCCCN)C(=O)N[C@@H](C)C(=O)N[C@@H](CSc1c(F)c(F)c(Sc2c(F)c(F)c(SCCOCCOCCOCCOCCOCCOCCOCCOCCOCCOCCOCCOCCC(=O)N[C@@H](CCCCNC(=O)CCCC[C@@H]3SC[C@@H]4NC(=O)N[C@@H]43)C(=O)O)c(F)c2F)c(F)c1F)C(=O)N[C@@H](Cc1ccccc1)C(=O)N[C@@H](Cc1ccccc1)C(=O)N[C@@H](C)C(=O)N[C@@H](Cc1ccccc1)C(=O)N[C@@H](CC(C)C)C(=O)N[C@@H](CCC(=O)O)C(=O)N[C@@H](Cc1c[nH]cn1)C(=O)N[C@@H](CC(C)C)C(=O)N[C@@H](CCCCN)C(=O)N[C@@H](CCCCN)C(=O)N[C@@H](CCCNC(=N)N)C(=O)N[C@@H](CCCCN)C(=O)N[C@@H](CC(C)C)C(=O)N[C@@H](Cc1ccc(O)cc1)C(=O)N1CCC[C@H]1C(=O)N[C@@H](CCSC)C(=O)N[C@@H](CO)C(=O)NCC(N)=O [Gen4-CA] (H-MNQKYKMAKAC(X1)FFAFLEHLKKRKLYPMSG-NH2)
protease stability [1]: significantly increased protease resistance

Compound: KMTKDCFFSFL-NH2 [MP01-T, KMTKDCFFSFL]
Second order rate constant [2, 6]: 0.06 M⁻¹ s⁻¹
reactivity with the CA (in words) [2]: severely diminished activity

Compound: MGHLHICMVWRVNTSGHILSVGHKSYSSHKTG-NH2 [MP13]
Rate [2]: 2.41 M⁻¹ s⁻¹

Compound: MGIVHNATRFPKRCFYSFIATRQSKNSIRVSG-NH2 [MP06]
Second order rate constant [2, 6]: 0.11 ± 0.01 M⁻¹ s⁻¹

Compound: MHAKYKMAKACFFAFLAHLKKRKLYPMSG-NH2 [Gen 2-Q3A]
reactivity with the CA (in words) [2]: no alteration

Compound: MHHYCSKMKRRILMHYLFANTMAHRDLGTNG-NH2 [MP15]
Rate [2]: 10.09 M⁻¹ s⁻¹

Compound: MHLRMIRYLNRRRHLCHVVEIRHGLFASREIG-NH2 [MP16]
Rate [2]: 0.19 M⁻¹ s⁻¹

Compound: MHMHKTTSYRIRVLVGVDVYRMSHTCLTSSSG-NH2 [MP19]
Rate [2]: 0.21 M⁻¹ s⁻¹

Compound: MHNAYLRKSMRQLCYFRRTLHNIHVMSHRG-NH2 [MP10]
conversion with modified CA (mCA) [3]: 96%
rate enhancement over a non-selected Cys peptide [2]: ~529 ×
Second order rate constant [2, 6]: 1.66 ± 0.48^a M^−1 s^−1
conversion with selection CA [4]: 91%

Compound: MHQKYKMAAACFFAFLAHLKKRKLYPMSG-NH2 [Gen 2-K9A]
reactivity with the CA (in words) [2]: no alteration

Compound: MHQKYKMAKACFFAFLAHHKKRKLYPMSG-NH2 [triple alanine variant]
Second order rate constant [2, 7]: 1.82 M⁻¹ s⁻¹
fold increase of second order rate constant relative to MP01 [2]: 6.3 fold

Compound: MHQKYKMAKACFFAFLAHLAKRKLYPMSG-NH2 [Gen 2-K20A]
reactivity with the CA (in words) [2]: no alteration

Compound: MHQKYKMAKACFFAFLAHLKKRKLYPMSG-NH2 [MP01-Gen2]
fold increase of second order rate constant relative to MP01 [2]: 32.2 fold

Compound: MHQKYKMAKACFFAFLEHLKKRKLYPMSG-NH2 [Gen3_1]
reactivity with the CA (in words) [2]: increased the rate of reaction

Compound: MHQKYKMTKDCFFSFLAHLKKRKLYPMSG-NH2 [MP01-H19L]
fold increase of second order rate constant relative to MP01 [2]: 7.5 fold

Compound: MHQKYKMTKDCFFSFLAHVKKRKLYPMSG-NH2 [MP01-H19V]
reactivity with the CA (in words) [2]: progressively improved rate constants

Compound: MHQKYKMTKDSFFSFLAHHKKRKLYPMSG-NH2 [SEQ ID NO: 91]
reactivity with the CA (in words) [2]: all reactivity was lost

Compound: MHTSLRSRAKSHSRSFGKCASIYTRYLKMG-NH2 [MP20]
Rate [2]: 1.22 M⁻¹ s⁻¹

Compound: MKTFSSDQRFSKKCYRIYFHKLRQRNHNTSVG-NH2 [MP07]
Second order rate constant [2, 6]: 0.91 ± 0.14^a M^−1 s^−1

Compound: MLFMRLTKKTMATKFCPFRRKRKHRERRALYG-NH2 [MP27]
Rate [2]: 0.61 M⁻¹ s⁻¹

Compound: MNGHYPCYLITSVLVGATTSGVPVVVHLRVG-NH2 [MP17]
Rate [2]: 0.11 M⁻¹ s⁻¹

Compound: MNQKYKMAKAAFFAFLEHLKKRKLYPMSG-NH2 [Gen4(C11A)]
protease stability in presence of CA (noncovalent) [1]: improved protease stability

Compound: MNQKYKMAKACFFAFLAHLKKRKLYPMSG-NH2 [Gen3_2]
reactivity with the CA (in words) [2]: increased the rate of reaction

thermal melting behaviour (in words) ([5]; 4-95° C.): broad, gradually increasing trend
Compound: MNQKYKMAKACFFAFLEHLKKRKLYPMSG-NH2 [MP01-Gen4]
reactivity relative to a random cysteine containing peptide [2]: ~4×10^3 times
second order rate constant relative to the initial MP01 scaffold [2]: ~100 times
reaction rate with ammonium sulfate ([2]; 2 μM ammonium sulfate (so in the source)): 3.9 M⁻¹ s⁻¹
reaction rate with sodium chloride ([2]; 2 μM sodium chloride (so in the source)): 6.1 M⁻¹ s⁻¹
reactivity under denaturant guanidinium chloride ([2]; 2-3 M guanidinium chloride, pH 7.45): near complete ablation of reactivity
rate constant with TMAO ([2]; trimethylamine N-oxide (TMAO) at 0.5 μM (so in the source)): ~9.7 M⁻¹ s⁻¹
rate constant with TMAO ([2]; trimethylamine N-oxide (TMAO) at 1 μM (so in the source)): ~7.5 M⁻¹ s⁻¹

Compound: MNQKYKMAKASFFAFLEHLKKRKLYPMSG-NH2 [Gen4(C11S)]
thermal melting behaviour (in words) with CA ([5]; 50 μM peptide with 10×CA (500 μM)): gradually increasing CD signal albeit with a shift to higher temperatures
protease stability in presence of CA (noncovalent) [1]: improved protease stability

Compound: MNRIFHKRSTYQMVFGRCSDFTSTYHVLISYG-NH2 [MP25]
Rate [2]: 0.25 M⁻¹ s⁻¹

Compound: MPNYGPLSPSQPSHGYTFWMVPIWDNSHNAAG-NH2 [MP02]
Second order rate constant ([2]; footnote b: construct with the full length C-terminal region (-SGSLGHHHHHHRL)): No Reaction^b
reactivity with the CA (in words) [2]: did not react

Compound: MQHEDLCTWYGFCPSGNFTPRNLRGDSDG [MP08]
Second order rate constant [2, 7]: 0.04 M⁻¹ s⁻¹
Second order rate constant [2, 6]: 0.04^d M^−1 s^−1

Compound: MQNSKHRPRRCLRLLPLLRGHLHRMFRERG-NH2 [MP21]
Rate [2]: 2.00 M⁻¹ s⁻¹

Compound: MRHYHLTCFQGFRIFRRTVDSLEMEISLG-NH2 [MP18]
Rate [2]: 0.17 M⁻¹ s⁻¹

Compound: MRPCARRDRTLWCPFDSPAWFLLSGFSCG [MP05]
Second order rate constant [2, 7]: 0.93 ± 0.11 M⁻¹ s⁻¹
Second order rate constant [2, 6]: 0.93 ± 0.11^c M^−1 s^−1

Compound: MRRTPSTRARGRVFLLPTLRFFITLCNLNG-NH2 [MP24]
Rate [2]: 0.02 M⁻¹ s⁻¹

Compound: MRSTHQRVRRPRNLCSFKHKWLIKFLKTLTG-NH2 [MP22]
Rate [2]: 4.94 M⁻¹ s⁻¹

Compound: MRTPIKFAPRLSQPFCPFRKQHQLHLHPLIEG-NH2 [MP04]
Second order rate constant [2, 6]: 0.24 ± 0.01 M⁻¹ s⁻¹

Compound: MRYIYVLRLKSWCGGASARSSPRSCATKLLG [MP09]
Second order rate constant [2, 6]: 0.52 ± 0.01^d M^−1 s^−1
initial rate (biphasic kinetics) ([2]; standard conditions, en route to being labeled twice): 0.52 M⁻¹ s⁻¹

Compound: MSSGTHYGILNMVIRCHLVKNQTSQMVVLTTG-NH2 [MP14]
Rate [2]: 0.12 M⁻¹ s⁻¹

Compound: MTATSSSTSRGCRPSTAQVVQRLRGLLLVVG-NH2 [MP26]
Rate [2]: 0.07 M⁻¹ s⁻¹

Compound: MTSVTASLLMHFCPIRAHITNKPSFNPSG-NH2 [MP03]
Second order rate constant [2, 6]: 0.04 M⁻¹ s⁻¹

Compound: MVKLSGKERTTRNCFFSFLASRRTKKFNNLSG-NH2 [MP12]
Rate [2]: 0.23 M⁻¹ s⁻¹
